Source: ChEMBL document CHEMBL3507680, “University of Dundee, Gates Library screen for HepG2 cell viability”

experiment: Human HepG2 cell viability assay in 384 well format; format: toxicity, cell-based; set-up: dose 125 nL, time 70.5 hour; concentration not given beside the values; conditions: HepG2 cells, read-out: Inhibition

SMILES | cytotoxicity at 70.5 h
Cc1ccc(S(=O)(=O)Nc2c(C)nn(C)c2C)cc1C | -5.46%
COC1CCN(c2ccc(F)cc2CN(C)C(C)C(N)=O)CC1 (centres undefined) | -1.51%
Cc1ccc(-c2noc(Cn3nc(C(N)=O)ccc3=O)n2)cc1 | -8.12%
CN(Cc1ccc(C#N)cc1)CC1CCS(=O)(=O)C1 (centres undefined) | -8.96%
COc1c(C2CCCN2CC(=O)N(C)c2nccs2)c(C)nn1C (centres undefined) | 0.589%
COc1cc(C)c(S(=O)(=O)CC(=O)N(C)C(C)C)cc1OC | -5.84%
O=C(CNC(=O)c1ccccc1I)NCc1ccccc1F | -10.2%
CCn1ccnc1CNCc1ccc(C)cc1OC(C)(C)C | -11%
Cc1nc(NC(=O)C(C)N(C)Cc2cccc(C#N)c2)sc1C (centres undefined) | 15.8%
Cc1ccc(CNC(=O)NCc2nccn2C)c(OC(C)(C)C)c1 | -2.56%
CCCn1nnnc1COC(=O)C1COc2ccccc2O1 (centres undefined) | -6.23%
CCSCc1cccc(NCc2cccnc2)c1 | -14.7%
COc1cccc(CN(C)C(C)C(=O)Nc2nc(C)c(C)s2)c1 (centres undefined) | -11.4%
Cc1cnn(CC2CCN(CC(O)Cn3cccn3)CC2)c1 (centres undefined) | -6.24%
CC(=O)N1CCC(NC(=O)c2ccccc2-n2cnnn2)CC1 | -3.54%
Cn1ccc(C(=O)N2CCCC2c2ccc3c(c2)OCCO3)cc1=O (centres undefined) | -2.74%
O=C(NC1CC1)c1cc(Cl)ccc1-n1cnnn1 | -6.19%
COc1cccc(C2CCCN2C(=O)c2ccc(=O)n(C)c2)c1 (centres undefined) | -3.72%
COC(=O)CCNC(=O)c1c[nH]cc1-c1ccccc1OC | -3.42%
CCC(C)NC(=O)CCNC(=O)c1c[nH]cc1-c1cccc(OC)c1 (centres undefined) | 2.46%
N#Cc1cc(C#N)c(SCCC(=O)Nc2ccc(F)cc2)nc1N | -12.6%
CCCNC(=O)NCc1nc(C)c(C)o1 | 7.79%
CN(C)c1ccc(CNC2(c3ccc(F)cc3)CCOCC2)cc1F | -7.63%
NC(=O)C1CCN(C(=O)CSC2CCCc3ccccc32)CC1 (centres undefined) | 1.96%

SMILES | cytotoxicity at 70.5 h
Cc1nc(CNC(=O)NCC(F)(F)F)oc1C | 3.56%
COc1c(NS(=O)(=O)c2ccc(C)c(C)c2)c(C)nn1C | 2.79%
COCC(=O)N[C@H](C(=O)NC(C)c1cc(C)ccc1C)C(C)C (some centres undefined) | -0.855%
CCn1nc2c(cc1=O)CN(c1nc3ccccc3s1)CC2 | 16.9%
O=C(CN1CCCNC1=O)N(Cc1ccccc1)CC(F)F | 1.59%
COCC(=O)N[C@H](C(=O)NC(C)c1cccc(C)c1C)C(C)C (some centres undefined) | 0.118%
Cc1nc(-c2ccc(CC(=O)N3CCNC(=O)C3)cc2)cs1 | 9.75%
CC(C)c1nc(NC(=O)CCCn2cccc2)n(C)n1 | 3.43%
CC1CN(C(=O)C2(c3ccc(F)cc3F)CCOCC2)CCO1 (centres undefined) | -2.6%
CCN(CC)Cc1ccccc1NCc1c(C)noc1C | -0.774%
COc1ccc(CNCc2c(C)nc3sc(C)cn23)c(OC)c1OC | 11.7%
Cn1cc(C(=O)N2CCCC2c2ccc3c(c2)OCO3)ccc1=O (centres undefined) | -1.44%
Cc1csc(C2(NCCC(=O)N3CCOCC3)CCCC2)n1 | 4.83%
COc1ccnc(N2CCN(Cc3ncc(C(C)(C)C)o3)CC2)n1 | 6.11%
CC(C)(C)OC(=O)N1CCC(C(=O)NC2CCS(=O)(=O)C2)CC1 (centres undefined) | -6.28%
CCc1ccc(CNC(=O)Nc2cc(C)on2)s1 | -9.95%
CCOc1ccc(C(=O)NCc2ccnc(N3CCCC3)c2)cn1 | -6.13%
CCn1cnnc1CNC(=O)N(C)Cc1c(F)cccc1Cl | -8.68%
CNS(=O)(=O)c1ccc(CNC(=O)Nc2cc(C)on2)s1 | -6.5%
Cc1ccc(C(=O)NCc2ccnc(N3CCN(C)CC3)c2)cn1 | -10%
CN(C)C(=O)N1CCC(C(=O)NCCNc2ncccc2C#N)CC1 | -4.63%
CC(C)(C)c1cnc(CN2CCN(c3ncccn3)CC2)o1 | 6.21%
CCN1CCN(C2CCN(C(C(N)=O)c3ccc(F)cc3)CC2)C1=O (centres undefined) | 5.11%
CCCN(CC1CC1)C(=O)Nc1ccc(N2CCSCC2)cc1C | -8.14%

SMILES | cytotoxicity at 70.5 h
CCC(C)N(C)C(=O)Nc1ccc(N2CCSCC2)cc1C (centres undefined) | -5.01%
O=C(NCCCC(=O)N1Cc2ccccc2C1)NCc1ccsc1 | 5.3%
CN1CCN(C2CCN(C(C(N)=O)c3ccccc3)CC2)C1=O (centres undefined) | -5.22%
Cc1csc(C2(NC(=O)NCCN3CCOCC3)CCC2)n1 | -8.41%
CC(CNC(=O)c1ccc(F)cc1I)N1CCCC1 (centres undefined) | 22%
NC(=O)COc1cccc(C(=O)NCc2ccc(Cl)s2)c1 | -11.8%
CN(Cc1ccc(Cl)s1)C(=O)COc1cccc(C(N)=O)c1 | -26.8%
CNC(=O)CCS(=O)(=O)Cc1coc(-c2ccc(F)cc2)n1 | -20.2%
CC(C)c1noc(CN2CCC(c3nc4cc(Cl)ccc4o3)CC2)n1 | -19.1%
Cc1cc(CN2CCN(C(=O)Cc3ccccc3F)CC2)on1 | -14%
Cc1nc(CN2CCC(c3nc4cc(Cl)ccc4o3)CC2)oc1C | -19.4%
CN(CC(=O)N1CCN(c2ccccn2)CC1)c1ccc(Cl)cn1 | -17.2%
NS(=O)(=O)CCCNC(=O)C1(c2cccc(Cl)c2)CC1 | -22.9%
COc1ccc(C(=O)NS(=O)(=O)c2cncc(Br)c2)c(OC)c1 | -7.26%
O=C(CCNC(=O)N1CCC(c2ccccc2)C1)N1CCCCC1 (centres undefined) | -13%
CC(CNC(=O)c1ccc(Cl)cc1F)N1CCN(C)CC1 (centres undefined) | 13.3%
COc1ccccc1C(=O)NS(=O)(=O)c1cncc(Br)c1 | 9.9%
Cn1cc(Br)c(=O)c(NS(=O)(=O)c2ccccc2F)c1 | -9.33%
CS(=O)(=O)NCCC1CCCCN1C(=O)NCCc1ccccn1 (centres undefined) | -14.3%
Cc1cc(CN2CCN(C(=O)CCc3cccs3)CC2)on1 | -18.8%
O=C1NCC2CN(Cc3ccccc3OCc3ccccn3)CCN12 (centres undefined) | -13.1%
CCC(CC)N(C)S(=O)(=O)c1ccc(CCNC(C)=O)s1 | 1.4%
O=C(CSc1ccc2c(c1)OCCO2)NS(=O)(=O)c1cccs1 | -6.92%
CC(NC(=O)N(C)Cc1ccsc1)c1nncn1C (centres undefined) | -2.73%

SMILES | cytotoxicity at 70.5 h
O=C(NCC(c1cccs1)N1CCOCC1)c1ccc(F)cc1Cl (centres undefined) | -5.9%
COc1ccc(-c2nnc(CN3CCNC(=O)C3)o2)cc1 | -2.61%
CC(Oc1ccc(S(C)(=O)=O)cc1)C(=O)NC(N)=O (centres undefined) | -7.21%
Cc1ccc(-c2nnc(CN3CCNC(=O)C3)o2)cc1 | -4.25%
Cc1cc(NC(=O)NCCc2ccc(S(N)(=O)=O)cc2)n(C)n1 | -6.71%
Cc1cc(NC(=O)NCCc2cccnc2)n(C)n1 | -3.88%
CC(Cn1cccn1)NC(=O)Nc1cccnc1 (centres undefined) | -8.71%
COc1ccc(NC(=O)NC(C)Cn2cccn2)cn1 (centres undefined) | -11.6%
CC(NC(=O)N(C)Cc1ccc2c(c1)OCO2)c1nncn1C (centres undefined) | -8.56%
NC(=O)CN1CCCN(C(=O)c2ccn(-c3ccc(F)cc3)n2)CC1 | 6.29%
CNC(=O)CN(C)Cc1ccc(F)cc1Cl | -6.72%
Cn1ccnc1-c1cccc(NC(=O)NCCCN2CCOCC2)c1 | -2.94%
CCn1nc2c(cc1=O)CN(CC(=O)Nc1cc(C(C)C)no1)CC2 | -8.8%
O=C(CSc1ccc2c(c1)OCCO2)NS(=O)(=O)c1cccnc1 | -3.19%
O=C(CSc1ccc2c(c1)OCCO2)NS(=O)(=O)c1ccccc1 | -8.6%
Cn1cc(-c2csc(N3CCCCCC3)n2)cn1 | -1.01%
CC(=O)Nc1ccc(CN2CCOC2=O)cc1 | -9.56%
CSc1ccc(S(=O)(=O)NC2CNC(=O)C2)cc1 (centres undefined) | -3.59%
CCOCCNC(=O)Nc1cccc(-c2nccn2C)c1 | -10%
Cn1cc(-c2nc(CN3CCn4c(nnc4C4CC4)C3)cs2)cn1 | -4.85%
O=C(CSc1ccc2c(c1)OCCO2)NS(=O)(=O)c1ccccc1F | -5.01%
COCCNC(=O)CN(C)Cc1ccc(F)cc1Cl | -10.1%
CC(C#N)CSc1ccccc1NCC(=O)Nc1ccccc1 (centres undefined) | 14.3%
COc1ccc(CNC(=O)CN2CCc3ccccc32)cc1 | 27%

SMILES | cytotoxicity at 70.5 h
O=C(CSc1nncs1)N1CCN(Cc2ccc(Cl)cc2)CC1 | 1.53%
O=C1NCCCCC1Sc1n[nH]c(=O)n1C1CC1 (centres undefined) | 15.9%
COc1cccnc1NC(=O)COc1c(C)cccc1C | 18.3%
O=C(CCc1ccsc1)NCC1CCN(Cc2cccs2)CC1 | -4.26%
CC1CCN(CCNC(=O)C2CCN(C(=O)NC(C)C)CC2)CC1 | -6.3%
COc1cccc(NC(=O)NC(C)(C)c2noc(C)n2)c1 | -4.79%
CNC(=O)CCNC(=O)Nc1cccc(Cl)c1SC(F)F | 0.534%
O=C(CNC(=O)Nc1cccc(Cl)c1SC(F)F)NC1CC1 | 16.9%
Cn1cc(CC(=O)N2CCOC(c3nc(C(C)(C)C)n[nH]3)C2)cn1 (centres undefined) | -1.3%
COCCN(Cc1ccc(F)cc1Cl)C(=O)c1csnn1 | -2.37%
O=C(Nc1ccnc(OC2CCOC2)c1)c1cccs1 (centres undefined) | -4.23%
Cc1ccn(-c2ccccc2NCc2scnc2C)n1 | -1.69%
OCC1CCN(Cc2cc3c(cc2Br)OCCO3)CC1 | 17.4%
CCC1CN(Cc2nnc(C3CC3)o2)CCN1CCOC (centres undefined) | 0.024%
CCOCCN1CCN(Cc2nnc(C3CC3)o2)CC1C (centres undefined) | -3.62%
CN(Cc1ccco1)C(=O)Nc1ccc(=O)n(C)c1 | 0.639%
COc1cccc(CNC(C)c2ccc(-n3ccnc3)cc2)c1O (centres undefined) | -5.24%
Cn1cc(CNC2CCS(=O)(=O)C2)c(-c2cc3ccccc3o2)n1 (centres undefined) | 5.22%
CCCc1[nH]n(C)c(=N)c1-c1ccc2c(c1)OCO2 | -3.98%
CCn1c(=O)n(Cc2nc(C3CC3)no2)c2ccccc21 | 23.4%
CCNC(=O)N1CCC(NC(=O)NCCc2cc3ccccc3o2)C1 (centres undefined) | 11.5%
COc1ccc(Cl)cc1CNC(=O)CN1CCC2(CCOC2)C1 (centres undefined) | 20%
CCOc1cccc(CNC(=O)CN2CCC3(CCOC3)C2)c1 (centres undefined) | -6.18%
